Measured values reported in article PMC10306345 (Journal of medicinal chemistry, 2013).
Read-outs that look alike come from different tables or passages of the source.

Experiments:
[1] = system: recombinant VACV (vL1Ri) EGFP under synthetic early/late promoter; assay type: cell-based, vaccinia virus
[2] = system: E9/A20/D4 dependent in vitro DNA synthesis; conditions: cited from earlier work
vaccinia virus (VACV) = test: microbe, parasite or virus in culture; assay type: cell-based; conditions: for IC50: Orthopoxvirus vaccinia
E3 protein = assay type: cell-based, vaccinia virus
A4 protein = assay type: cell-based, vaccinia virus
[3] = system: VACV viral factories in BSC-1 cells; assay type: cell-based, vaccinia virus

Structure (SMILES)	antiviral activity (in words) (vaccinia virus (VACV))	further results
Nc1ccn(C[C@@H](CO)OCP(=O)(O)O)c(=O)n1.O.O [CDV, cidofovir, reference compound]		EGFP expression [1]: equally effective; EGFP expression, treatment post vL1Ri adsorption [1]: comparable EGFP expression and CPE to DMSO vehicle
Cc1ccc2c(Sc3ccc(Cl)cc3)c(C(=O)O)[nH]c2c1 [Compound 1, 3-((4-Chlorophenyl)thio)-6-methyl-1H-indole-2-carboxylic acid]		inhibition of in vitro DNA synthesis [2]: ability to inhibit in vitro DNA synthesis
O=C(O)c1[nH]c2ccccc2c1Sc1ccc(Cl)cc1 [Compound 1d]	loss of activity	
COc1cccc2[nH]c(C(=O)O)c(Sc3ccc(Cl)cc3)c12 [Compound 1i]	loss of activity	
Cc1ccc2c(c1)c(Sc1ccc(Cl)cc1)c(C(=O)O)n2C [Compound 2]	loss	
CCn1c(C(=O)O)c(Sc2ccc(Cl)cc2)c2cc(C)ccc21 [Compound 3]	no gain in activities	
COC(=O)c1[nH]c2cc(C)ccc2c1Sc1ccc(Cl)cc1 [Compound 6]		fold improvement in antiviral potency over parent 1 (vaccinia virus (VACV)): ~ 4 fold
COC(=O)c1[nH]c2ccc(C)cc2c1Sc1ccc(Cl)cc1 [Compound 7]	lost activity	
COC(=O)c1[nH]c2c(C)cccc2c1Sc1ccc(Cl)cc1 [Compound 8]		fold improvement in antiviral potency over parent 1 (vaccinia virus (VACV)): ~ 4 fold
COC(=O)c1[nH]c2cccc(C)c2c1Sc1ccc(Cl)cc1 [Compound 9]		fold improvement in antiviral potency over parent 1 (vaccinia virus (VACV)): ~ 4 fold
Cc1ccc2c(Sc3ccccc3)c(C(=O)O)[nH]c2c1 [Compound 18]	abolished its antiviral activity	
Cc1ccc2c(Sc3cccc(F)c3)c(C(=O)O)[nH]c2c1 [Compound 18b]		IC50 (vaccinia virus (VACV); read-out: IC50 (antiviral activity, Table 2)): 56 µM
Cc1ccc2c(Sc3ccc(Br)cc3)c(C(=O)O)[nH]c2c1 [Compound 18c]	loss of activity	
Cc1ccc(Sc2c(C(=O)O)[nH]c3cc(C)ccc23)cc1 [Compound 18d]	failed to show antiviral activities	
COc1ccc(Sc2c(C(=O)O)[nH]c3cc(C)ccc23)cc1 [Compound 18e]	failed to show antiviral activities	
Cc1ccc2c(Sc3ccc(C(=O)O)cc3)c(C(=O)O)[nH]c2c1 [Compound 18f]	loss of activity	
COc1ccc(Sc2c(C(=O)O)[nH]c3cccc(C)c23)cc1 [Compound 19]	failed to show antiviral activities	
Cc1ccc(Sc2c(C(=O)O)[nH]c3cccc(C)c23)cc1 [Compound 19a]	failed to show antiviral activities	
COC(=O)c1ccc(Sc2c(C(=O)O)[nH]c3cccc(C)c23)cc1 [Compound 19b]	failed to show antiviral activities	
Cc1cccc2[nH]c(C(=O)O)c(Sc3ccc([N+](=O)[O-])cc3)c12 [Compound 19c]	loss of activity	
Cc1ccc2c(Sc3cc(Cl)cc(Cl)c3)c(CCC(N)=O)[nH]c2c1 [Compound 24a, 3-(3-((3,5-Dichlorophenyl)thio)-6-methyl-1H-indol-2-yl)propanamide]		E3 early protein level (E3 protein): slight decrease; A4 late protein level (A4 protein): dramatically reduced in a dose-dependent manner; EGFP expression [1]: significantly reduced; EGFP expression, treatment post vL1Ri adsorption [1]: appreciable EGFP expression; cytopathic effect (CPE) [1]: lowered; BrdU labeling of viral factories [3]: significantly suppressed
Cc1ccc2c(Sc3cc(Cl)cc(Cl)c3)c(CCCC(N)=O)[nH]c2c1 [Compound 24c, 4-(3-((3,5-Dichlorophenyl)thio)-6-methyl-1H-indol-2-yl)butanamide]		fold decrease in antiviral potency (vaccinia virus (VACV)): ~ 5 fold
Cc1ccc2c(Sc3cc(Cl)cc(Cl)c3)c(CCC(=O)O)[nH]c2c1 [Compound 24d, 3-(3-((3,5-Dichlorophenyl)thio)-6-methyl-1H-indol-2-yl)propanoic acid]		fold decrease in antiviral potency (vaccinia virus (VACV)): ~ 5 fold
CCCCCCNC(=O)CCc1[nH]c2cc(C)ccc2c1Sc1cc(Cl)cc(Cl)c1 [Compound 24e, 3-(3-((3,5-Dichlorophenyl)thio)-6-methyl-1H-indol-2-yl)-N-hexylpropanamide]	loss of activity	
COC(=O)c1[nH]c2cc(C)ccc2c1Sc1cc(Cl)cc(Cl)c1 [Compound 27]	loss of activity	
CNC(=O)c1[nH]c2cc(C)ccc2c1Sc1cc(Cl)cc(Cl)c1 [Compound 28]	loss of activity	
Cc1ccc2c(Sc3cc(Cl)c(Cl)cc3Cl)c(C(=O)O)[nH]c2c1 [Compound 30]		IC50 (vaccinia virus (VACV); read-out: IC50 (antiviral activity, Table 3)): 21 µM
Cc1ccc2c(Sc3ccc(C(F)(F)F)cc3[N+](=O)[O-])c(C(=O)O)[nH]c2c1 [Compound 31]	loss of activity	
